Measurements published in ChEMBL document CHEMBL4118119, “Development of novel pyridazinone-based adenosine receptor ligands” (Bioorg Med Chem Lett, 2018).

Columns and labels:
[1] = target: T1, Adenosine receptor A2b (Homo sapiens) (UniProt P29275); experiment: Antagonist activity at recombinant human A2B receptor expressed in CHO cells assessed as inhibition of NECA-stimulated cAMP production at 0.001 to 1 uM by Alpha screen assay relative to control; assay type: functional, cell-based
T1 sequence (whole entry): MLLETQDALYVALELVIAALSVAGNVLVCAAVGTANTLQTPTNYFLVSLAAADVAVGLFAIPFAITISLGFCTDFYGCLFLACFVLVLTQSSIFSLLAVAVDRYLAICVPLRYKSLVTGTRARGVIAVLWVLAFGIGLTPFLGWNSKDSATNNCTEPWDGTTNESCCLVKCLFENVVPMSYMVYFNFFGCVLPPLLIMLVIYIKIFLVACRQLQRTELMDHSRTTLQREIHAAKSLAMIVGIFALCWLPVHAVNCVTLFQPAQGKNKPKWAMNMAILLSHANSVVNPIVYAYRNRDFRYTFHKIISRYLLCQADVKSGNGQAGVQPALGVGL

Adenosine receptor A2a [2] = target: T2, Adenosine receptor A2a (Homo sapiens, UniProt P29274); experiment: Displacement of [3H]-ZM241385 from recombinant human A2A receptor expressed in CHO cell membranes at 1 uM measured after 60 mins by scintillation counting method relative to control
T2 sequence (P29274 whole entry): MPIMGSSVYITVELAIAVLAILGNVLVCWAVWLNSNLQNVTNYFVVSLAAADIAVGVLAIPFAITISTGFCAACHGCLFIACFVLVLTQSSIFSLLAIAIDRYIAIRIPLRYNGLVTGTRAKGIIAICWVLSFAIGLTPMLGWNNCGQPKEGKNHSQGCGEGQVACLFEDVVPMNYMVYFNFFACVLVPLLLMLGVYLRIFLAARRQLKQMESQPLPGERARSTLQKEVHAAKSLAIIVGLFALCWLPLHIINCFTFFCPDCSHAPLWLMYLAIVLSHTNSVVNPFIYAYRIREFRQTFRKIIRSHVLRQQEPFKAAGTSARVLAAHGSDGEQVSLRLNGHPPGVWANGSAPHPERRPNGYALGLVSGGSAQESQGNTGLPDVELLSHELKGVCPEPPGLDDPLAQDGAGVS

[3] = target: T3, Adenosine receptor A3 (Homo sapiens) (UniProt P0DMS8); experiment: Displacement of [125I]-ABMECA from recombinant human A3 receptor expressed in CHO cell membranes at 1 uM measured after 120 mins by scintillation counting method relative to control
T3 sequence (whole entry): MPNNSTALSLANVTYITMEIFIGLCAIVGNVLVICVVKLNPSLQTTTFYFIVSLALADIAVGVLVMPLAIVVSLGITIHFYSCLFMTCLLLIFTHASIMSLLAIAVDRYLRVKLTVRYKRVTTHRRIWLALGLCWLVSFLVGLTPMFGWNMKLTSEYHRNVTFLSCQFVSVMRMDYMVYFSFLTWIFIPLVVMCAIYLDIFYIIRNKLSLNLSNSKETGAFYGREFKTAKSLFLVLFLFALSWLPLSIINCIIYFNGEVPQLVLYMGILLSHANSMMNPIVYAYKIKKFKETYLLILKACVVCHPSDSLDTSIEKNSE

Adenosine receptor A1 = target: T4, Adenosine receptor A1 (Homo sapiens, UniProt P30542); experiment: Displacement of [3H]DPCPX from recombinant human A1 receptor expressed in CHO cell membranes measured after 90 mins by scintillation counting method
T4 sequence (P30542 whole entry): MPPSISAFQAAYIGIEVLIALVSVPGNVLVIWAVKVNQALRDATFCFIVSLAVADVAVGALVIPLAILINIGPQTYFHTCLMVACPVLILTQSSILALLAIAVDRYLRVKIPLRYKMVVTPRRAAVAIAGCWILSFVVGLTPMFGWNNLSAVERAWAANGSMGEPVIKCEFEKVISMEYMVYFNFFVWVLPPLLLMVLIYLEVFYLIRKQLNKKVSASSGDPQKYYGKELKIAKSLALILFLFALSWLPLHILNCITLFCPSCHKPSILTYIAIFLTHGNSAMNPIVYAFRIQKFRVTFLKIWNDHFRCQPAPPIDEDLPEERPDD

Adenosine receptor A2a [4] = target: T2, Adenosine receptor A2a; experiment: Displacement of [3H]-ZM241385 from recombinant human A2A receptor expressed in CHO cell membranes measured after 60 mins by scintillation counting method
Adenosine receptor A3 = target: T5, Adenosine receptor A3 (Homo sapiens, UniProt P0DMS8); experiment: Displacement of [125I]-ABMECA from recombinant human A3 receptor expressed in CHO cell membranes measured after 120 mins by scintillation counting method
T5 sequence (P0DMS8 whole entry): T3 sequence (whole entry)

[5] = target: T6, Adenosine receptor A1 (Homo sapiens) (UniProt P30542); experiment: Displacement of [3H]DPCPX from recombinant human A1 receptor expressed in CHO cell membranes at 1 uM measured after 90 mins by scintillation counting method relative to control
T6 sequence (whole entry): T4 sequence (P30542 whole entry)

Structure (SMILES) | inhibition [1] | inhibition (Adenosine receptor A2a [2]) | inhibition [3] | Ki (Adenosine receptor A1) | Ki (Adenosine receptor A2a [4]) | Ki (Adenosine receptor A3) | inhibition [5]
CC(C)n1nc(-c2ccccn2)c2sccc2c1=O | 1% | 2% | 2% | 912 nM |  |  | 
O=c1[nH]nc(-c2nccs2)c2sccc12 | 1% |  | 1% | 1150 nM | 3.39 µM |  | 
Nn1nc(-c2cccs2)c2sccc2c1=O | 1% | 1% | 1% | 3540 nM |  |  | 
CCn1nc(-c2cccs2)c2sccc2c1=O | 1% | 1% | 1% | 724 nM |  |  | 
CCn1nc(-c2ccccc2)c2sccc2c1=O | 1% | 17% |  | 2670 nM |  | 2590 nM | 
Nn1nc(-c2ccccc2)c2sccc2c1=O | 1% | 12% | 1% |  |  |  | 16%
CCn1nc(-c2ccccn2)c2sccc2c1=O | 1% |  | 1% | 782 nM | 2.87 µM |  | 
CCc1nn(CC)c(=O)c2cc(-c3ccccc3)sc12 | 1% |  | 10% |  | 3.14 µM |  | 4%
Nn1nc(-c2ccccn2)c2sccc2c1=O | 1% | 1% | 1% | 3720 nM |  |  | 
CCn1nc(-c2nccs2)c2sccc2c1=O | 1% |  |  | 113 nM | 2.49 µM | 2930 nM | 
CCc1nn(CC)c(=O)c2ccsc12 | 1% | 7% | 14% |  |  |  | 3%
Nn1nc(-c2nccs2)c2sccc2c1=O | 1% | 15% | 5% | 2870 nM |  |  | 
